Test results from patent US7407940B2, “Antimicrobial hexapeptides” (Helix BioMedix Inc., priority 2005, dated 2008).
Converted amounts (≈) assume the structure as drawn. Like-named read-outs stand apart in the source and are kept apart here. Where a SMILES comes first, the peptide text is derived from it. Where no end group is shown, it is not given here. The star is where a group is joined. Pentadecanoyl = CCCCCCCCCCCCCCC(=O)*; Tridecanoyl = CCCCCCCCCCCCC(=O)*; Lauroyl = CCCCCCCCCCCC(=O)*

Experiments:
[1] = test system: azole resistant strains of C. albicans; assay type: cell-based; parameters: MIC-SEQ ID NO: 55 + azole, peptide part / MIC-SEQ ID NO: 55 + azole, azole part: unit not given beside the values; details: in combination with SEQ ID NO: 55
Procedure: (§1) The fractional inhibitory concentration (FIC) index was used to determine the synergy between antimicrobial agents. Peptide MICs against test microorganisms were determined three times on separate occasions. […]
All strains are azole resistant clinical isolates from Prof. Ted White (Seattle Biotechnology Research Institute, Seattle)

[2] = test system: Candida albicans; assay type: cell-based
Procedure: (§2) MICs (minimal inhibitory concentrations) were determined for the hexapeptides of interest using a slightly modified version of the NCCLS (National Committee for Clinical Laboratory Standards) broth microdilution method as described previously (Steinberg et al., AAC 41: 1738, 1997). Briefly, antimicrobial agents were prepared as 10× concentrates in the most appropriate solvent. For the hexapeptide, 0.01% acetic acid containing 0.2% bovine serum albumin as a carrier protein was used. Inocula were prepared by resuspending colonies from a BAP (please spell out this term) in medium and adjusting the suspension to match that of a 0.5 McFarland standard. The suspension was diluted into fresh medium (as recommended by NCCLS for the organism) to give 2×10^5 to 7×10^5 CFU/ml for bacteria or 2×10^3 to 7×10^3 CFU/ml for Candida. After dispensing 100 μl aliquots of the microbial suspension into each well of a 96-well polypropylene microtiter plate, 11 μl of test compound was added. The MIC was defined as the lowest concentration of drug which prevented visible turbidity after 16 to 20 hours (bacteria) or 46 to 50 hours (Candida) at 35° C.

[3] = test system: Staphylococcus aureus; assay type: cell-based
Procedure: as §2

[4] = test system: Trychophyton mentagrophytes; test: MIC100 against dermatophyte Trychophyton mentagrophytes; assay type: cell-based; details: T. mentagrophytes; at 10 days
Procedure: (§3) In order to compare the activity of various antimicrobial peptides, including hexapeptide SEQ ID NO:1 (P0666), MIC were determined against the dermatophytes Trychophyton rubrum and Trychophyton mentagrophytes. The concentration of samples investigated were: 2000, 1000, 500, 250 and 125 μg/ml, respectively. The medium used was modified Sabouraud's media without agar. For a 100 mL of modified Sabouraud medium: 3 g of Sabouraud's dextrose broth (Difco) was mixed into 100 mL of deionized water. The pH was adjusted to 7.0 with 0.1 N NaOH. The solution was autoclaved for thirty minutes. 940 μL of medium was poured into sterile 20 mL test tubes with plastic caps and was allowed to cool.
(§4) 50 μL of […] was added to each 20 mL test tube to make the required concentration. A control tube was composed of 50 μL of saline without sample. For the MIC experiments,
(§5) 10 μL of organism suspended in saline was added to the each 20 mL test tube and vortexed slightly. Each of the test tubes was covered in parafilm and maintained on a shaker at 27° C. at a speed of approximately 100 rpm.
(§6) The growth/inhibition of the organism was observed on a daily basis. […] The Minimum Inhibition Concentration (MIC100) for compounds F1 to F10 against fungus Trychophyton rubrum and Trychophyton mentagrophytes at 10 days.

[5] = test system: Trychophyton rubrum; test: MIC100 against dermatophyte Trychophyton rubrum; assay type: cell-based; details: T. rubrum; at 10 days
Procedure: as §3, §4, §5, §6

[6] = test system: MRSA; test: Kill curve in 10% sheep serum-phosphate buffer against MRSA; assay type: cell-based, S. aureus; parameters: MRSA count in kill curve: unit not given here
[7] = test system: Pseudomonas aeruginosa; assay type: cell-based; parameters: MIC, lipid length SAR: unit not given here; details: for MIC, lipid length SAR: P.aeruginosa; for MIC: agent alone
Procedure: as §2

[8] = test system: Salmonella typhimurium 14028S; test: MIC, broth microdilution, S. typhimurium; assay type: cell-based; parameters: unit not given here; details: S.typhimurium
Procedure: as §2

[9] = test system: P. acnes; test: Activity against extended panel of P. acnes; assay type: cell-based; parameters: unit not given here
Text: A very promising application for short bioactive peptides is for dermatological indications such as acne.

[10] = test system: P. aeruginosa; assay type: cell-based; details: combined with SEQ ID NO: 55
Procedure: as §1

For `Clc1ccccc1C(c1ccccc1)(c1ccccc1)n1ccnc1` [Clotrimazole, clotrimazole, reference compound], the “MIC-SEQ ID NO: 55 + azole, azole part” value ([1]; C. albicans #185) was 12.5, the “MIC-SEQ ID NO: 55 + azole, azole part” value ([1]; C. albicans #186) was 12.5 and the “MIC-SEQ ID NO: 55 + azole, azole part” value ([1]; C. albicans #187) was 25. For the same compound, the “MIC-SEQ ID NO: 55 + azole, azole part” value ([1]; C. albicans #192) was 50, the “MIC-SEQ ID NO: 55 + azole, azole part” value ([1]; C. albicans #196) was 50 and the “MIC-SEQ ID NO: 55 + azole, azole part” value ([1]; C. albicans #199) was 25. The MIC ([2]; T.W. Candida #184, azole resistant clinical isolate) was > 256 µg/mL, the MIC ([2]; T.W. Candida #185 (CDR1,2), azole resistant clinical isolate) was 128 µg/mL (≈ 371 µM) and the MIC ([2]; T.W. Candida #186 (CDR1,2), azole resistant clinical isolate) was 32 µg/mL (≈ 92.8 µM). The MIC ([2]; T.W. Candida #187 (CDR1,2), azole resistant clinical isolate) was > 256 µg/mL, the MIC ([2]; T.W. Candida #192 (CDR1,2), azole resistant clinical isolate) was 128 µg/mL (≈ 371 µM) and the MIC ([2]; T.W. Candida #193, azole resistant clinical isolate) was 0.5 µg/mL (≈ 1.45 µM). The MIC ([2]; T.W. Candida #194, azole resistant clinical isolate) was > 256 µg/mL, the MIC ([2]; T.W. Candida #195, azole resistant clinical isolate) was 256 µg/mL (≈ 742 µM) and the MIC ([2]; T.W. Candida #196 (CDR1,2), azole resistant clinical isolate) was 64 µg/mL (≈ 186 µM). For the same compound, the MIC ([2]; T.W. Candida #197, azole resistant clinical isolate) was > 256 µg/mL, the MIC ([2]; T.W. Candida #198, azole resistant clinical isolate) was > 256 µg/mL and the MIC ([2]; T.W. Candida #199 (CDR1,2), azole resistant clinical isolate) was 64 µg/mL (≈ 186 µM).
For `CCCCCCCCCCCC(=O)N[C@@H](CCCCN)C(=O)N[C@@H](Cc1ccccc1)C(=O)N[C@@H](CCCCN)C(=O)N[C@@H](Cc1c[nH]c2ccccc12)C(=O)N1CCC[C@H]1C(=O)N[C@@H](Cc1c[nH]c2ccccc12)C(N)=O` [compound 72] (Lauroyl-KFKWPW-NH2), the “Minimal Inhibitory Concentrations (Mics)” value [3] was 4-8 Mg/Ml.
In the case of `CCCCCCCCCCCCCCC(=O)N[C@@H](CCCCN)C(=O)N[C@@H](Cc1ccccc1)C(=O)N[C@@H](CCCCN)C(=O)N[C@@H](Cc1c[nH]c2ccccc12)C(=O)N1CCC[C@H]1C(=O)N[C@@H](Cc1c[nH]c2ccccc12)C(N)=O` [compound 78] (Pentadecanoyl-KFKWPW-NH2), the “Minimal Inhibitory Concentrations (Mics)” value [3] is reported as 32-64 Mg/Ml.
FAKLLAKALKKLL-NH2 [SEQ ID NO: 87] showed an MIC100 [4] of 500 µg/mL and an MIC100 [5] of 500 µg/mL.
In the case of FAKLLAKLAKKLL-NH2 [SEQ ID NO: 89], the MIC100 [4] is reported as 500 µg/mL and the MIC100 [5] is reported as 500 µg/mL.
For FALKALKKLKKALKKAL-NH2 [SEQ ID NO: 86], the MIC100 [4] was 250 µg/mL and the MIC100 [5] was 1000 µg/mL.
In the case of KFKWPW-NH2 [SEQ ID NO: 1, KFKWPW-NH2], the “MRSA count in kill curve” value ([6]; buffer, 2 mg/ml, 30 min) is reported as 99200, the “MRSA count in kill curve” value ([6]; buffer, 2 mg/ml, 1 hour) is reported as 62800 and the “MRSA count in kill curve” value ([6]; buffer, 2 mg/ml, 2 hours) is reported as 99200. For the same compound, the “MRSA count in kill curve” value ([6]; buffer, 2 mg/ml, 3 hours) was 99200, the “MRSA count in kill curve” value ([6]; buffer, 2 mg/ml, 4 hours) was 99200 and the “MRSA count in kill curve” value ([6]; buffer, 2 mg/ml, 5 hours) was 99200. The “MRSA count in kill curve” value ([6]; serum, 1 mg/ml, 30 min) was 102300, the “MRSA count in kill curve” value ([6]; serum, 1 mg/ml, 1 hour) was 99600 and the “MRSA count in kill curve” value ([6]; serum, 1 mg/ml, 2 hours) was 15110. The “MRSA count in kill curve” value ([6]; serum, 1 mg/ml, 3 hours) was 12080, the “MRSA count in kill curve” value ([6]; serum, 1 mg/ml, 4 hours) was 5020 and the “MRSA count in kill curve” value ([6]; serum, 1 mg/ml, 5 hours) was 2570. The “MRSA count in kill curve” value ([6]; serum, 2 mg/ml, 30 min) was 9800, the “MRSA count in kill curve” value ([6]; serum, 2 mg/ml, 1 hour) was 3200 and the “MRSA count in kill curve” value ([6]; serum, 2 mg/ml, 2 hours) was 630. For the same compound, the “MRSA count in kill curve” value ([6]; serum, 2 mg/ml, 3 hours) was 250, the “MRSA count in kill curve” value ([6]; serum, 2 mg/ml, 4 hours) was 70 and the “MRSA count in kill curve” value ([6]; serum, 2 mg/ml, 5 hours) was 50. For the same compound, the “MIC, lipid length SAR” value [7] was 32, the MIC100 [4] was 250 µg/mL and the MIC100 [5] was 250 µg/mL.
“Lau-KFKWPW-NH2 (Lauroyl-KFKWPW-NH2; SMILES CCCCCCCCCCCC(=O)N[C@@H](CCCCN)C(=O)N[C@@H](Cc1ccccc1)C(=O)N[C@@H](CCCCN)C(=O)N[C@@H](Cc1c[nH]c2ccccc12)C(=O)N1CCC[C@H]1C(=O)N[C@@H](Cc1c[nH]c2ccccc12)C(N)=O) [SEQ ID NO: 72]” was tested, and the “MIC, lipid length SAR” value [8] was 32, the “MIC, lipid length SAR” value [7] was 32 and the “Activity (MIC) against P. acnes” value ([9]; ATCC 6922) was 1. The “Activity (MIC) against P. acnes” value ([9]; ATCC 6923) was 1, the “Activity (MIC) against P. acnes” value ([9]; ATCC 25746) was 1 and the “Activity (MIC) against P. acnes” value ([9]; ATCC 29399) was 2. The “Activity (MIC) against P. acnes” value ([9]; ATCC 33179) was 1 and the “Activity (MIC) against P. acnes” value ([9]; ATCC 51277) was 1.
In the case of “Tri-KFKWPW-NH2 (Tridecanoyl-KFKWPW-NH2; SMILES CCCCCCCCCCCCC(=O)N[C@@H](CCCCN)C(=O)N[C@@H](Cc1ccccc1)C(=O)N[C@@H](CCCCN)C(=O)N[C@@H](Cc1c[nH]c2ccccc12)C(=O)N1CCC[C@H]1C(=O)N[C@@H](Cc1c[nH]c2ccccc12)C(N)=O) [SEQ ID NO: 80]”, the “MIC, lipid length SAR” value [8] is reported as 32-64 and the “MIC, lipid length SAR” value [7] is reported as 32.
With polymyxin B [reference compound] the MIC ([7]; P. aeruginosa 100609, tobromycin resistant) was 0.5 µg/mL, the MIC ([7]; P. aeruginosa H187, wide type) was 0.5 µg/mL and the MIC ([7]; P. aeruginosa H401, mucoid clinical isolate) was 0.25 µg/mL. For the same compound, the MIC ([7]; P. aeruginosa M917, multi-drug resistant clinical isolate) was 1 µg/mL, the MIC-PXB-combined ([10]; P. aeruginosa 100609) was 0.125 µg/mL and the MIC-PXB-combined ([10]; P. aeruginosa H187) was 0.06 µg/mL. The MIC-PXB-combined ([10]; P. aeruginosa H401) was 0.0625 µg/mL and the MIC-PXB-combined ([10]; P. aeruginosa M917) was 0.25 µg/mL.
